Reference: the supplement of paper PMC10307832

How the values were obtained:
Assay in all cases: relative viability (nuclei count vs DMSO), 5 days (fraction); higher = more cells survive
Apatinib + Bortezomib = compound: N#CC1(c2ccc(NC(=O)c3cccnc3NCc3ccncc3)cc2)CCCC1 [Apatinib] + CC(C)C[C@H](NC(=O)[C@H](Cc1ccccc1)NC(=O)c1cnccn1)B(O)O [Bortezomib] (partner 0.002 µM)
In short: (§1)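 One day after seeding in 1536-well plates, lung cancer cell lines were dosed by pin tool. Dosing was either single-drug or a fixed anchor-drug dose plus five library-drug doses (not always all listed) in √10 steps. After 5 days, nuclei were stained in one fix-and-stain step and counted on 4× images, and relative viability is the nuclei count of treated wells over that of vehicle wells, given as the median of duplicate plates.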

Metformin + Crizotinib = compound: CN(C)C(=N)NC(=N)N [Metformin] + C[C@@H](Oc1cc(-c2cnn(C3CCNCC3)c2)cnc1N)c1c(Cl)ccc(F)c1Cl [Crizotinib] (partner 1 µM)
In short: as §1

Metformin + Palbociclib = compound: CN(C)C(=N)NC(=N)N [Metformin] + CC(=O)c1c(C)c2cnc(Nc3ccc(N4CCNCC4)cn3)nc2n(C2CCCC2)c1=O [Palbociclib] (partner 0.5 µM)
In short: as §1

Apatinib + Vorinostat = compound: N#CC1(c2ccc(NC(=O)c3cccnc3NCc3ccncc3)cc2)CCCC1 [Apatinib] + O=C(CCCCCCC(=O)Nc1ccccc1)NO [Vorinostat] (partner 1 µM)
In short: as §1

Cell Line | relative viability (Apatinib + Bortezomib; first compound 0.08 µM) | relative viability (Apatinib + Bortezomib; first compound 0.253 µM) | relative viability (Apatinib + Bortezomib; first compound 0.8 µM) | relative viability (Apatinib + Bortezomib; first compound 2.53 µM) | relative viability (Apatinib + Bortezomib; first compound 8 µM) | relative viability (Metformin + Crizotinib; first compound 10 µM) | relative viability (Metformin + Crizotinib; first compound 31.62 µM) | relative viability (Metformin + Crizotinib; first compound 100 µM) | relative viability (Metformin + Crizotinib; first compound 316.23 µM) | relative viability (Metformin + Crizotinib; first compound 1000 µM) | relative viability (Metformin + Palbociclib; first compound 10 µM) | relative viability (Metformin + Palbociclib; first compound 31.62 µM) | relative viability (Metformin + Palbociclib; first compound 100 µM) | relative viability (Metformin + Palbociclib; first compound 316.23 µM) | relative viability (Metformin + Palbociclib; first compound 1000 µM) | relative viability (Apatinib + Vorinostat; first compound 0.08 µM) | relative viability (Apatinib + Vorinostat; first compound 0.253 µM) | relative viability (Apatinib + Vorinostat; first compound 0.8 µM) | relative viability (Apatinib + Vorinostat; first compound 2.53 µM) | relative viability (Apatinib + Vorinostat; first compound 8 µM)
NCI-H1650 | 0.19 | 0.219 | 0.198 | 0.184 | 0.188 | 0.961 | 0.855 | 1.04 | 0.877 | 0.82 | 0.316 | 0.381 | 0.424 | 0.229 | 0.305 | 0.564 | 0.559 | 0.513 | 0.412 | 0.489
HCC-78 | 0.539 | 0.525 | 0.618 | 0.505 | 0.476 | 0.422 | 0.487 | 0.498 | 0.491 | 0.529 | 0.479 | 0.507 | 0.452 | 0.505 | 0.483 | 0.524 | 0.396 | 0.427 | 0.402 | 0.374
LCLC-97TM1 | 0.774 | 0.775 | 0.508 | 0.344 | 0.574 | 0.401 | 0.4 | 0.457 | 0.382 | 0.543 | – | 0.239 | 0.321 | 0.209 | 0.21 | 0.911 | 0.758 | 0.695 | 0.577 | 0.337
NCI-H441 | 0.615 | 0.481 | 0.592 | 0.322 | 0.217 | 0.337 | – | 0.638 | 0.457 | 0.655 | – | 0.211 | 0.165 | 0.215 | 0.238 | 0.891 | 0.673 | 0.827 | 0.809 | 0.574
NCI-H1651 | 0.799 | 0.955 | 0.922 | 0.912 | 0.861 | 0.933 | 0.957 | 0.939 | 0.964 | 0.97 | 0.556 | 0.681 | 0.652 | 0.519 | 0.605 | 0.583 | 0.522 | 0.528 | 0.48 | 0.577
